Results published in patent publication US20150291507A1, “PANTHENYL DOCOSAHEXAENEOATE AND ITS USE FOR TREATING AND PREVENTING CARDIOVASCULAR DISEASES” (PIERRE FABRE MEDICAMENT, priority 2010, published 2015).

Tested on: atrial refractory period
Test: Atrial refractory period in the anesthetized pig (electrical stimulation S1/S2, left atrium)
Type: in vivo, pig (male Landrace)
Method: The study was carried out on male Landrace pigs (20-25 kg). Anesthesia was maintained with isoflurane (0.5-3% of lung tidal volume). Number of respirations and tidal volume were adjusted so as to maintain blood gases within physiological limits. A left lateral thoracotomy was performed in the fourth intercostal space and the pericardium was opened. Polyethylene-filled catheters were introduced into the nearest thoracic artery to measure arterial pressure during the experiment and in the left saphenous vein to administer the active products or a control carrier. An atrial electrocardiogram (ECG) was continuously recorded, with three electrodes placed and sutured in the epicardium and the fourth serving as mass and placed in the thoracic muscles. Thus, the ECG provides information on atrial activity. Two bipolar electrodes were also placed in the left atrium at an interval of 0.3 cm and were maintained by fishing hooks. Electrical stimulations were carried out by a stimulator (DS 8000, WPI). […] The panthenyl docosahexaenoate of formula A (quantity: 10+10 mg/kg, n=4) was administered in the form of a bolus over 1 minute and then allowed to diffuse for 40 minutes. […]

CC/C=C\C/C=C\C/C=C\C/C=C\C/C=C\C/C=C\CCC(=O)OCCCNC(=O)C(O)C(C)(C)CO (stereo in doubt) [panthenyl docosahexaenoate of formula A, 3-[(2R)-2,4-dihydroxy-3,3-dimethylbutanamido]propyl(4Z,7Z,10Z,13Z,16Z,19Z)-docosa-4,7,10,13,16,19-hexaenoate]
increase in atrial refractory periods (ARPs) (intravenous 10 mg/kg + 10 mg/kg (bolus over 1 minute, then 40 minutes), anesthetized male Landrace pigs, n=4, p<0.001, placebo -4±3 ms): 19 ± 2 ms | activity on atrial refractory period compared with the panthenol diester (same formulation and administration, anesthetized pigs, FIG. 1): significantly more active than the panthenol diester
